The values that follow come from ChEMBL document CHEMBL1131388, “Synthesis and antitumor activity of 4-phenyl-1-arylsulfonyl imidazolidinones” (Bioorg Med Chem Lett, 1998).

One experiment deals with A549. Nature of the experiment: Cytotoxicity against human lung carcinoma A549 cell line using MTT assay.
The subject of another experiment is K562. Nature of the experiment: Cytotoxicity against human chronic myelogenous leukemia (K562) cell line using MTT assay. Format: functional, cell-based.
Another experiment relates to SK-OV-3. Nature of the experiment: Cytotoxicity against human ovarian adenocarcinoma (SK-OV-3) cell line using MTT assay. Format: functional, cell-based.
The test system of experiment [1] is Colon 26. The experiment is described as follows: Antitumor activity was evaluated against murine colon carcinoma (Colon26) as body weight change in BALB/c mice upon intraperitoneal administration at a dose of 4 mg/kg. The class given is functional, Mus musculus.
In experiment [2] the test system is Colon 26. The experiment is described as follows: Antitumor activity was evaluated against murine colon carcinoma (Colon26) as tumor growth inhibition was determined in BALB/c mice upon intraperitoneal administration at a dose of 4 mg/kg. The class given is functional, Mus musculus.
Experiment [3] in a line: Antitumor activity was evaluated against Lewis lung carcinoma as body weight change in BDF1 mice upon intraperitoneal administration at a dose of 4 mg/kg. Format: functional, Mus musculus.
Experiment [4] can be described thus: Antitumor activity was evaluated against Lewis lung carcinoma as tumor growth inhibition was determined in BDF1 mice upon intraperitoneal administration at a dose of 4 mg/kg. Format: functional, Mus musculus.
Experiment [5] concerns NCI-H23. Nature of the experiment: Antitumor activity was evaluated against human lung carcinoma (NCI-H23) as body weight change in human tumor xenograft mice upon intraperitoneal administration at doses of 1,2,3mg/kg. The class given is functional.
The subject of experiment [6] is NCI-H23. The experiment is described as follows: Antitumor activity was evaluated against human lung carcinoma (NCI-H23) as tumor growth inhibition in human tumor xenograft mice upon intraperitoneal administration at doses of 1,2,3mg/kg. Format: functional.
Experiment [7] has as its system SW-620. Nature of the experiment: Antitumor activity was evaluated against human colon carcinoma (SW620) as body weight change in human tumor xenograft mice upon intraperitoneal administration at doses of 1,2,3mg/kg. Format: functional.
Experiment [8] relates to SW-620. The experiment is described as follows: Antitumor activity was evaluated against human colon carcinoma (SW620) as tumor growth inhibition in human tumor xenograft mice upon intraperitoneal administration at doses of 1,2,3mg/kg. The class given is functional.
In experiment [9] the test system is Colon 26. The experiment is described as follows: Antitumor activity was evaluated against murine colon carcinoma (Colon26) as body weight change in BALB/c mice upon peroral administration at a dose of 65 mg/kg. The following applies: route oral. Format: functional, Mus musculus.
In experiment [10] the test system is Colon 26. Nature of the experiment: Antitumor activity was evaluated against murine colon carcinoma (Colon26) as tumor growth inhibition was determined in BALB/c mice upon peroral administration at a dose of 65 mg/kg. The class given is functional. The following applies: Mus musculus, route oral, read-out: TGI.
A short description of experiment [11]: Antitumor activity was evaluated against Lewis lung carcinoma as body weight change in BDF1 mice upon peroral administration at a dose of 100 mg/kg. The class given is functional, Mus musculus. As to conditions: route oral.
Experiment [12] can be described thus: Antitumor activity was evaluated against Lewis lung carcinoma as tumor growth inhibition was determined in BDF1 mice upon peroral administration at a dose of 100 mg/kg. The class given is functional. The following applies: Mus musculus, route oral, read-out: TGI.
Experiment [13] relates to NCI-H23. Nature of the experiment: Antitumor activity was evaluated against human lung carcinoma (NCI-H23) as body weight change in human tumor xenograft mice upon peroral administration at a dose of 65 mg/kg. Format: functional. As to conditions: route oral.
Experiment [14] concerns NCI-H23. The experiment is described as follows: Antitumor activity was evaluated against human lung carcinoma (NCI-H23) as tumor growth inhibition in human tumor xenograft mice upon peroral administration at a dose of 65 mg/kg. The following applies: Mus musculus, route oral, read-out: TGI. Format: functional.
Experiment [15] relates to SW-620. Nature of the experiment: Antitumor activity was evaluated against human colon carcinoma (SW620) as body weight change in human tumor xenograft mice upon peroral administration at a dose of 65 mg/kg. The class given is functional. The following applies: route oral.
Experiment [16] concerns SW-620. The experiment is described as follows: Antitumor activity was evaluated against human colon carcinoma (SW620) as tumor growth inhibition in human tumor xenograft mice upon peroral administration at a dose of 65 mg/kg. Format: functional. The following applies: Mus musculus, route oral, read-out: TGI.

`O=C1NC(c2ccccc2)CN1S(=O)(=O)c1ccc2c(c1)CCC2` (stereo not drawn): the concentration for half-maximal inhibition (IC50) was 4.74 µM with A549, 42.7 µM in the experiment with K562 and 12.1 µM with SK-OV-3.

As for `O=C(c1ccc([N+](=O)[O-])cc1)N1CCc2cc(S(=O)(=O)N3CC(c4ccccc4)NC3=O)ccc21` (stereo not drawn), the results for the IC50 in the experiment on A549, in the experiment on K562 and in the experiment on SK-OV-3 were 3.45 µM, 18 µM and 4.24 µM, respectively.

`COc1cccc2c1C(=O)c1c(O)c3c(c(O)c1C2=O)C[C@@](O)(C(=O)CO)C[C@@H]3O[C@H]1C[C@H](N)[C@H](O)[C@H](C)O1` [DOXORUBICIN]: the Body weight change in the experiment with Colon 26 [1] was 3 g; in experiment [3] it was 2 g; in the experiment with NCI-H23 [5], -2.6 g; in the experiment with SW-620 [7], -2.6 g. Besides, the TCI with Colon 26 [2] amounted to 42.5%; in [4], 60.4%; in the experiment on NCI-H23 [6], 39%; in the experiment with SW-620 [8], 49%. Moreover, the IC50 was 1.77 µM in the experiment with K562 and 4.15 µM in the experiment on SK-OV-3.

In the case of `Nc1ccc(C(=O)N2CCc3cc(S(=O)(=O)N4CC(c5ccccc5)NC4=O)ccc32)cc1` (stereo not drawn), the values for the IC50 in the experiment with A549, in the experiment on K562 and in the experiment with SK-OV-3 were 0.2 µM, 0.44 µM and 1.24 µM, respectively. The Body weight change in the experiment on Colon 26 [9] was 0.4 g; in [11] it was -1 g; in the experiment on NCI-H23 [13] it was 0.6 g; with SW-620 [15] it was 1 g. Also, the inhibition in vivo at 65 mg/kg with Colon 26 [10] came out at 55.6%; in the experiment on NCI-H23 [14], 67%; with SW-620 [16], 87%. Moreover, the inhibition in vivo at 100 mg/kg in experiment [12] was 84.3%.

On to `O=C(c1ccccc1)N1CCc2cc(S(=O)(=O)N3CC(c4ccccc4)NC3=O)ccc21` (stereo not drawn), for which the IC50 was 0.44 µM with A549, 4.12 µM with K562 and 0.56 µM in the experiment with SK-OV-3.

As for `O=C(Nc1ccc(Cl)cc1)NS(=O)(=O)c1ccc2c(c1)CCC2` [SULOFENUR], the figures for the IC50 in the experiment on A549, in the experiment with K562 and in the experiment on SK-OV-3 were 36.4 µM, 50.1 µM and 223 µM, respectively.
